Assay results as given in patent US5563130A, “Methods for inhibiting angiogenesis, proliferation of endothelial or tumor cells and tumor growth” (American Cyanamid Company, priority 1994, dated 1996).
Where a name gives a salt, the structure may show the parent alone.

Key:
Format in all cases: cell-based
[1] = system: MIP; test: Antiproliferative activity in human colon tumor cell line MIP; settings: PROTOCOL 1 and PROTOCOL 2
Protocol: (§1) PROTOCOL 1, 2, and 3 are described in greater detail hereinbelow. In general, according to PROTOCOLS 1 and 2, the target ABAE and/or Human Tumor cells are exposed to the compound of Formula I for 48 hours. PROTOCOL 3 exposes ABAE cell to the compound for 4 days. A detailed description of the protocol is as follows:
(§2) Antiproliferative Activity in Human Tumor and Adult Bovine Aortic Endothelial (ABAE) Cell Lines
(§3) The antiproliferative activity of the compounds of Formula I of the present invention is evaluated in a panel comprised of human tumor cell lines and an adult bovine aortic endothelial cell line (ABAE). The human tumor cell lines are from:
(§4) 2) Colon tumors: MIP, CaCo2, and SW620.
(§5) All cell lines are maintained in log phase in RPMI 1640 media, supplemented with 5% fetal calf serum, penicillin/streptomycin and 2 mM L-glutamine. Cultures are renewed after 20 passages with cells from a fresh stock of batch-frozen early passage cells. Cell lines are routinely checked for mycoplasma contamination (Genprobe). In a laminar flow hood, cells (1-5×10^4) are plated into 96-well microtiter plates in a volume of 0.1 ml/well with a bulk microtiter dispenser (Denley). […] At this concentration, dimethylsulfoxide has no effect on cell growth. Compounds are added using a Tomtec dispenser which simultaneously dispenses from one 96-well plate, containing the drug dilutions, to the plates containing the cells. After two days of continuous drug exposure, 50% cold trichloroacetic acid (TCA) is added to 10% final concentration to fix the cells, and after 60 minutes at 4° C., the TCA is aspirated and the plates are washed 5 times with deionized water using a microtiter plate washer. The number of cells on the plate are quantitated using a protein dye-binding assay (Monks et al., 1991). A 0.4% solution of the dye, sulforhodamine B, in glacial acetic acid is added to the plates, and the plates are washed 5 times with 1% glacial acetic acid using the automatic plate washed. The bound stain is solubilized with 0.1 ml of 10 mM Tris base. The optical densities are read from an automatic spectrophotometric plate reader (Dynatech) directly to a main frame computer (VAX 8600).
(§6) Positive controls, that include standard chemotherapeutic drugs (i.e., adriamycin, cisplatin, etc.), are included in every experiment.
(§7) Background optical density measurements (complete media-cells, and complete media+drug-cells) are automatically subtracted from the appropriate control and test wells. Mean values and standard errors are determined from duplicate wells. A measure is also made of the optical density at time when the drugs are added. The number of cells after treatment (P), as % of control, is calculated for every concentration of drug, as follows: [formula] wherein: T is optical density measurement for treated cells after 48 hours;
(§8) C is optical density measurement for untreated cells after 48 hours;
(§9) Co is optical density measurement for cells at the time of drug addition.
(§10) IC50 of growth inhibition is calculated from the sets of P values using the RS-1 data package (BBN Software).
(§11) The antiproliferative activity of the compounds of Formula I is evaluated in a panel comprised of human tumor cell lines and an adult bovine aortic endothelial cell line (ABAE) as listed in PROTOCOL 1. This assay is a modification of PROTOCOL 1. The modifications include:
(§12) 1) each concentration for each compound is tested in a single well;
(§13) 2) compounds are tested at 20, 4, 0.8, 0.16 microgram/ml and additionally in some experiments at 100 and 0.32 microgram/ml;
(§14) 3) samples are pipetted into a 96-well plate for each of the cell lines by a Beckman Biomek 1000 SL robot;
(§15) 4) after fixing with TCA each well is washed with 0.35 ml distilled water twice, not five times;
(§16) 5) after staining with sulforhodamine B each well is washed 3 times, not five times; […]

[2] = system: A2780S; test: Antiproliferative activity in human ovarian tumor cell line A2780S; settings: PROTOCOL 1 and PROTOCOL 2
Protocol: as §1, §2, §3, §5, §6, §7, §8, §9, §10, §11, §12, §13, §14, §15, §16

[3] = system: SW620; test: Antiproliferative activity in human colon tumor cell line SW620; settings: PROTOCOL 1 and PROTOCOL 2
Protocol: as §1, §2, §3, §4, §5, §6, §7, §8, §9, §10, §11, §12, §13, §14, §15, §16

[4] = system: Human Tumor Cell lines; test: Antiproliferative activity in panel of human tumor cell lines; settings: average over the tested human tumor cell lines
Protocol: as §1, §2, §3, §4, §5, §6, §7, §8, §9, §10, §11, §12, §13, §14, §15, §16

[5] = system: HTB 16; test: Antiproliferative activity in human tumor cell line HTB 16; settings: ovarian tumor line; PROTOCOL 1 and PROTOCOL 2
Protocol: as §1, §2, §3, §5, §6, §7, §8, §9, §10, §11, §12, §13, §14, §15, §16

[6] = system: A2780/DDP; test: Antiproliferative activity in human ovarian tumor cell line A2780/DDP; settings: PROTOCOL 1 and PROTOCOL 2
Protocol: as §1, §2, §3, §5, §6, §7, §8, §9, §10, §11, §12, §13, §14, §15, §16

[7] = system: Adult Bovine Aortic Endothelial (ABAE) cell line; test: Antiproliferative activity in ABAE cells, PROTOCOL 1 (48 h, SRB)
Protocol: PROTOCOL 1, 2, and 3 are described in greater detail hereinbelow. In general, according to PROTOCOLS 1 and 2, the target ABAE and/or Human Tumor cells are exposed to the compound of Formula I for 48 hours. PROTOCOL 3 exposes ABAE cell to the compound for 4 days. A detailed description of the protocol is as follows: Antiproliferative Activity in Human Tumor and Adult Bovine Aortic Endothelial (ABAE) Cell Lines The antiproliferative activity of the compounds of Formula I of the present invention is evaluated in a panel comprised of human tumor cell lines and an adult bovine aortic endothelial cell line (ABAE). […] The number of cells on the plate are quantitated using a protein dye-binding assay (Monks et al., 1991). […] The optical densities are read from an automatic spectrophotometric plate reader (Dynatech) directly to a main frame computer (VAX 8600). […] Mean values and standard errors are determined from duplicate wells. […] The number of cells after treatment (P), as % of control, is calculated for every concentration of drug, as follows: [formula] wherein: T is optical density measurement for treated cells after 48 hours; C is optical density measurement for untreated cells after 48 hours; Co is optical density measurement for cells at the time of drug addition. IC50 of growth inhibition is calculated from the sets of P values using the RS-1 data package (BBN Software). […]

[8] = system: Adult Bovine Aortic Endothelial (ABAE) cell line; test: Antiproliferative activity in ABAE cells, PROTOCOL 2 (48 h, SRB, single well)
Protocol: as §1, §2, §11, §12, §13, §14, §15
5) after staining with sulforhodamine B each well is washed 3 times, not five times;
6) the growth inhibition (I) as % of control, is calculated using the RS-1 data package (BBN Software), for every concentration of drug, as follows: [formula] wherein: T is optical density measurement for treated cells after 48 hours;
as §8
7) IC50 of growth inhibition is determined from graphically from dose response curves, as is known in the art.
Table 1 presents the results depicting the antiproliferative activity of the compounds of Formula I against an Adult Bovine Aortic Endothelial (ABAE) cell line, as evaluated by PROTOCOL 1 and PROTOCOL 2. The results are presented in terms of IC50 and are as follows.

[9] = system: Adult Bovine Aortic Endothelial (ABAE) cell line; test: Antiproliferative activity in ABAE cells, PROTOCOL 3 (4 days, cell count); settings: PROTOCOL 3, FIG. 1
Protocol: as §1
Antiproliferative Activity in Adult Bovine Aortic Endothelial (ABAE) Cell Line
ABAE cells are grown in DMEM media (Mediatech, Washington, D.C.) supplemented with 10% calf serum (Hyclone). ABAE cells are plated in 24-well dishes at 8,000 cells/well, followed by the addition of increasing concentrations of 7-[substituted amino]-9-[(substituted glycyl)amido]-6-demethyl-6-deoxytetracyclines. After four days, the cells are detached and counted. […] The growth inhibition (I) as % of control is calculated as follows: [formula] wherein: Nc is the number of cells in untreated wells;
Nt is the number of cells in treated wells;
No is the number of plated cells.
IC50 of growth inhibition is determined from the sets of I values plotted by Kaleidograph software (Abelbeck Software).
In addition FIG. 1, presents the dose response curve of the compound of Example 6 for the above ABAE cell line obtained by PROTOCOL 3.

SMILES | MIP IC50 [1] | A2780S IC50 [2] | SW620 IC50 [3] | AVERAGE IC50 FOR TUMOR CELL LINES [4] | HTB 16 IC50 [5] | A2780/DDP IC50 [6] | IC50 PROTOCOL 1 [7] | IC50 PROTOCOL 2 ([8]; ABAE cells, 48 h, PROTOCOL 2) | activity in preventing proliferation of ABAE cells compared to Minocycline ([8]; Table 1) | inhibits 50% of cell growth [9]
CN(C)[C@@H]1C(O)=C(C(N)=O)C(=O)[C@@]2(O)C(O)=C3C(=O)c4c(ccc(NC(=O)CN5CCCCC5)c4O)CC3CC12 (stereo partly drawn) [Example 3, [7S-(7alpha,10aalpha)]-N-9-(Aminocarbonyl)-7-(dimethylamino)-5,5a,6,6a,7,10,10a,12-octahydro-1,8,10a,11-tetrahydroxy-10,12-dioxo-1-piperidineacetamidedihydrochloride] | 3.0 µg/mL | 2.5 µg/mL | 2.8 µg/mL | 2.7 µg/mL | 2.3 µg/mL | 2.7 µg/mL | – | – | – | –
CCCNCC(=O)Nc1ccc2c(c1O)C(=O)C1=C(O)[C@]3(O)C(=O)C(C(N)=O)=C(O)[C@@H](N(C)C)C3CC1C2.Cl.Cl (stereo partly shown) [Example 4] | 3.4 µg/mL | 3.2 µg/mL | 1.3 µg/mL | 2.85 µg/mL | 3.2 µg/mL | 3.1 µg/mL | 5.2 µg/mL | – | – | –
CN(C)[C@@H]1C(O)=C(C(N)=O)C(=O)[C@@]2(O)C(O)=C3C(=O)c4c(ccc(NC(=O)CN5CCCC5)c4O)CC3CC12.Cl.Cl (stereo partly shown) [Example 5] | 3.0 µg/mL | 2.5 µg/mL | 2.8 µg/mL | 2.7 µg/mL | 2.3 µg/mL | 2.7 µg/mL | – | – | – | –
CCCCNCC(=O)Nc1ccc2c(c1O)C(=O)C1=C(O)[C@]3(O)C(=O)C(C(N)=O)=C(O)[C@@H](N(C)C)C3CC1C2.Cl (stereo partly drawn) [Example 6, [4S-(4alpha,12aalpha)]-9-[[(Butylamino)acetyl]amino]-4-(dimethylamino)-1,4,4a,5,5a,6,11,12a-octahydro-3,10,12,12a-tetrahydroxy-1,11-dioxo-2-naphthacenecarboxamide monohydrochloride] | 3.4 µg/mL | 3.4 µg/mL | 3.2 µg/mL | 3.2 µg/mL | 2.9 µg/mL | 3.3 µg/mL | – | 4 µg/mL | extraordinary activity in preventing the proliferation of ABAE cells as compared to the prior art compound, Minocycline | approximately 3 μg/ml
CN(C)[C@@H]1C(O)=C(C(N)=O)C(=O)[C@@]2(O)C(O)=C3C(=O)c4c(ccc(NC(=O)CNCC5CC5)c4O)CC3CC12.Cl.Cl (stereo partly drawn) [Example 7, [4S-(4alpha,12aalpha)]-9-[[[(Cyclopropylmethyl)amino)acetyl]amino]-4-(dimethylamino)-1,4,4a,5,5a,6,11,12a-octahydro-3,10,12,12a-tetrahydroxy-1,11-dioxo-2-naphthacenecarboxamide dihydrochloride] | 6.3 µg/mL | 4.9 µg/mL | 3.9 µg/mL | 4.5 µg/mL | 3.3 µg/mL | 3.9 µg/mL | – | – | – | –
CN(C)CC(=O)Nc1ccc2c(c1O)C(=O)C1=C(O)[C@]3(O)C(=O)C(C(N)=O)=C(O)[C@@H](N(C)C)C3CC1C2.Cl.Cl (stereo partly drawn) [Example 8, [4S-(4alpha,121aalpha)]-9-[[(Dimethylamino)acetyl]-amino]-4-(dimethylamino)-1,4,4a,5,5a,6,11,12a-octahydro-3,10,12,12a-tetrahydroxy-1,11-dioxo-2-naphthacenecarboxamide dihydrochloride] | 6.0 µg/mL | 4.8 µg/mL | 5.0 µg/mL | 5.1 µg/mL | 4.1 µg/mL | 5.8 µg/mL | – | – | – | –
CC(C)CNCC(=O)Nc1ccc2c(c1O)C(=O)C1=C(O)[C@]3(O)C(=O)C(C(N)=O)=C(O)[C@@H](N(C)C)C3CC1C2.Cl.Cl (stereo partly drawn) [Example 9, [b 4S-(4alpha,12aalpha)]-4-(Dimethylamino)-1,4,4a,5,5a,-6,11,12a-octahydro-3,10,12,12a-tetrahydroxy-9-[[[(2-methylpropyl)amino]acetyl]amino]-1,11-dioxo-2-naphthacenecarboxamide dihydrochloride] | 5.75 µg/mL | 3.5 µg/mL | 5.7 µg/mL | 5.5 µg/mL | 5.0 µg/mL | 7.7 µg/mL | – | – | – | –
